Measured values: US8906852B2 (MethylGene Inc., priority 2010, dated 2014)

Experiments:
VEGFR/KDR = target: T1, VEGFR/KDR (Homo sapiens, UniProt P35968); test: VEGFR/KDR kinase inhibition, DELFIA assay; assay type: biochemical; details: ATP 0.6 uM (2x Km), enzyme 5 nM
T1 construct: made in house; host or cells: Sf9 cells (Spodoptera frugiperda), baculovirus
Method in brief: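 DELFIA time-resolved fluorescence readout using Europium-tagged anti-phosphotyrosine antibody after EDTA stop. Kinase reaction on plate-bound poly(Glu4,Tyr) ran 10-30 min at 30° C with 5 nM enzyme and 0.6 uM ATP (2× Km), following 4 min on-ice pre-incubation with compound; IC50 over a concentration range.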

CNV progression = test: In vivo choroidal neovascularization (CNV) model, laser-induced, intravitreal injection; parameters: species or system Male Brown-Norway rats; details: 240 h, rat; for inhibition in vivo at 10 nmol/eye: 10 nmol/eye injected on Day 3, CNV area on Day 10, vs vehicle; for inhibition in vivo at 3 nmol/eye: 3 nmol/eye injected on Day 3, CNV area on Day 10, vs vehicle
Text: This test measures the capacity of compounds to inhibit CNV progression. CNV is the main cause of severe vision loss in patients suffering from age-related macular degeneration (AMD).
Male Brown-Norway rats (Japan Clea Co., Ltd.) were used in these studies.
Rats were anesthetized by intraperitoneal injection of pentobarbital, and the right pupil was dilated with 0.5% tropicamide and 0.5% phenylephrine hydrochloride. The right eye received 6 laser burns between retinal vessels using a slit lamp delivery system of Green laser Photocoagulator (Nidex Inc., Japan), and microscope slide glass with Healon™ (AMO Inc) used as a contact lens. The laser power was 100 or 200 mW for 0.1 second and spot diameter was 100 μm. At the time of laser burn, bubble production was observed, which is an indication of rupture of Bruch's membrane which is important for CNV generation.
Rats were divided into the groups based on their body weight using SAS software (SAS institute Japan, R8.1) after laser irradiation (Day 0). After animals were anesthetized, and the right pupil dilated (as above mentioned), the right eye of the animal received the compound or vehicle by an injection (10 μL/eye) at doses of 10 or 3 nmol/eye on Day 3. The compounds were dissolved or suspended in CBS, PBS, or other adequate vehicles before injection.
On Day 10, the animals were anesthetized with ether, and high molecular weight fluorescein isothiocyanate (FITC)-dextran (SIGMA, 2×10^6 MW) was injected via a tail vein (20 mg/rat). About 30 min after FITC-dextran injection, animals were euthanized by ether or carbon dioxide, and the eyes were removed and fixed with 10% formaline neutral buffer solution. After over 1 hour of fixation, RPE-choroid-sclera flat mounts were obtained by removing cornea, lens and retina from the eyeballs. The flat mounts were mounted in 50% glycerol on a microscope slide, and the portion burned by laser was photographed using a fluorescence microscope (Nikon Corporation, excitation filter:465-495 nm, absorption filter:515-555 nm). The CNV area was obtained by measurement of hyper-fluorescence area observed on the photograph using Scion image.
The average CNV area of 6 burns was used as an individual value of CNV area, and the average CNV area of compound treated group was compared with that of the vehicle-treated group.

T1 sequence (P35968 806-1356): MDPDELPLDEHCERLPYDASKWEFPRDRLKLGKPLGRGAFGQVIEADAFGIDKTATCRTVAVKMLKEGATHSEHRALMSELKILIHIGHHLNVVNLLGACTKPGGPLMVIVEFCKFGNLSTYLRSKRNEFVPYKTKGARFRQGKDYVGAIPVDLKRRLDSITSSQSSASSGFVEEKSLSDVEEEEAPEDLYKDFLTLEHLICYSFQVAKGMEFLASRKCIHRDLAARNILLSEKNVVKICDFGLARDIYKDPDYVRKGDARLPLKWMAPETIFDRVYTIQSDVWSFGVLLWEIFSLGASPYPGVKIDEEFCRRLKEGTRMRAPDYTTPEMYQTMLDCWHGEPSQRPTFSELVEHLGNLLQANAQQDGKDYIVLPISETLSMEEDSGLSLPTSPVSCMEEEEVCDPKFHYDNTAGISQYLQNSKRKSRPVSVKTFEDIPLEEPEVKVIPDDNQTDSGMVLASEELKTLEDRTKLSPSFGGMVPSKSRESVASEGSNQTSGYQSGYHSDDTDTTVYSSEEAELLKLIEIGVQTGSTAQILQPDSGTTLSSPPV

SMILES | IC50 (VEGFR/KDR) | inhibition in vivo at 10 nmol/eye (CNV progression) | inhibition in vivo at 3 nmol/eye (CNV progression)
CN(C)C(=O)CCN1CCN(Cc2ccc(-c3cc4nccc(Oc5ccc(NC(=O)NC6CC6)cc5F)c4s3)nc2)CC1 [Compound 83, 3-(4-((6-(7-(4-(3-cyclopropylureido)-2-luorophenoxy)thieno-[3,2-b]pyridin-2-yl)pyridin-3-yl)melhyl)piperazin-l-yl)-N,N-dimethyl-propanamide] | < 50 nM | 40 to 60% | 
Cn1c(CN2CCCC2=O)cnc1-c1cc2nccc(Oc3ccc(NC(=O)NC4CC4)cc3F)c2s1 [Compound 137, 1-cyclopropyl-3-(3-fluoro-4-(2-(1-methyl-5-((2-oxopyrrolidin-1-yl)methyl)-1H-imidazol-2-yl)thieno[3,2-b]pyridin-7-yloxy)phenyl)urea] | < 50 nM | 40 to 60% | 
CN1CCN(CCn2cc(-c3cc4nccc(Oc5ccc(NC(=O)NC6CC6)cc5F)c4s3)cn2)CC1 [Compound 154, 1-cyclopropyl-3-(3-fluoro-4-(2-(1-(2-(4-methylpiperazin-1-yl)ethyl)-1H-pyrazol-4-yl)thieno[3,2-b]pyridin-7-yloxy)phenyl)urea] | < 50 nM |  | 40 to 60%
CC(C)N(CCN1CCN(C(=O)c2ccc(-c3cc4nccc(Oc5ccc(NC(=O)NC6CC6)cc5F)c4s3)nc2)CC1)C(C)C [Compound 230, 1-cyclopropyl-3-(4-(2-(5-(4-(2-(diisopropylamino)ethyl)piperazine-1-carbonyl)pyridin-2-yl)thieno[3,2-b]pyridin-7-yloxy)-3-fluorophenyl)urea] | < 50 nM |  | 40 to 60%
CN1CCC(CN2CCN(C(=O)c3ccc(-c4cc5nccc(Oc6ccc(NC(=O)NC7CC7)cc6F)c5s4)nc3)CC2)CC1 [Compound 232, 1-cyclopropyl-3-(3-fluoro-4-(2-(5-(4-((1-methylpiperidin-4-yl)methyl)piperazine-1-carbonyl)pyridin-2-yl)thieno[3,2-b]pyridin-7-yloxyl)phenyl)urea] | < 50 nM |  | 40 to 60%

Now from value to compound, other results behind:

IC50 (VEGFR/KDR) | SMILES | inhibition in vivo at 10 nmol/eye (CNV progression) | inhibition in vivo at 3 nmol/eye (CNV progression)
< 50 nM | COCCN(Cc1ccc(-c2cc3nccc(Oc4ccc(NC(=O)NC5CC5)cc4F)c3s2)nc1)C(=O)[C@H](C)O [Compound 89, (S)-N-((6-(7-(4-(3-cyclopropylureido)-2-fluorophenoxy)thieno[3,2-b]pyridin-2-yl)pyridin-3-yl)methyl)-2-hydroxy-N-(2-methoxyethyl)propanamide] | ≥ 60% | 
< 50 nM | COCCN(Cc1ccc(-c2cc3nccc(Oc4ccc(NC(=O)NC5CC5)cc4F)c3s2)nc1)C(=O)CS(C)(=O)=O [Compound 90, N-((6-(7-(4-(3-cyclopropylureido)-2-fluorophenoxy)thieno[3,2-b]pyridin-2-yl)pyridin-3-yl)methyl)-N-(2-methoxyethyl)-2-(methylsulfonyl)acetamide] | ≥ 60% | 
< 50 nM | O=C(Nc1ccc(Oc2ccnc3cc(-c4ccc(CN5CCCS5(=O)=O)cn4)sc23)c(F)c1)NC1CC1 [Compound 142, 1-cyclopropyl-3-(3-fluoro-4-(2-(5-(2,2-dioxo-2-thiapyrrolidin-1-ylmethyl)pyridin-2-yl)thieno[3,2-b]pyridin-7-yloxy)phenyl)urea] | 40 to 60% | 
< 50 nM | COCCNCCc1ccc(-c2cc3nccc(Oc4ccc(NC(=O)NC5CC5)cc4F)c3s2)nc1 [Compound 288, 1-cyclopropyl-3-(3-fluoro-4-(2-(5-(2-(2-methoxyethylamino)ethyl)pyridin-2-yl)thieno[3,2-b]pyridin-7-yloxy)phenyl)urea] | 40 to 60% | 
